{
  "source": "patent US7619005B2",
  "about": "“Methods for treating cognitive impairment in humans with Multiple Sclerosis” (Cognition Pharmaceuticals LLC, priority 2000, dated 2009)",
  "key": {"scopolamine treated rats": {"system": "scopolamine treated rats", "assay": "Passive Avoidance in scopolamine treated rats (memory impairment)", "assay_type": "in vivo, rat"}, "normal subjects [1]": {"system": "normal subjects", "assay": "Phase I studies of l-methamphetamine: safety and tolerability"}, "Long-Evans rats [2]": {"system": "Long-Evans rats", "assay": "Locomotor activity, activity monitoring chambers", "assay_type": "in vivo, rat", "procedure": "Activity monitoring was conducted in a Plexiglas open-field box measuring 30 by 30 cm. […] The location of the animal within the cage was detected by breaks in the infrared light beams. Light beams status information was collected and rapidly analyzed by a computerized activity monitoring system (VersaMax System, Accuscan Instruments.)\nIn order to determine whether SN522 had any adverse effects on locomotor or exploratory activity, rats were injected with saline or 0.25, 0.5, 2.5 and 5.0 mg/kg of SN522 and immediately afterwards placed into the activity monitoring chambers for a period of three hours."}, "normal subjects [3]": {"system": "normal subjects", "assay": "CDR computerized cognitive assessment system, l-methamphetamine", "description": "A randomized, double-blind, placebo-controlled, dose escalation study in human subjects, who were not suffering from an impairment in a memory or cognitive process (“normal subjects”), was conducted to assess the safety, tolerability and pharmacokinetics and improvement in cognitive processes, including memory, following the administration of l-methamphetamine (25 mg, 50 mg, 100 mg, 150 mg).\nA selection of tasks from the CDR computerized cognitive assessment system was administered and parallel forms of the tests were presented on each testing session. […] All tasks were computer-controlled, the information was presented on high resolution screens, and the responses recorded via a response module containing two buttons, one marked ‘NO’ and the other ‘YES’. The tracking task additionally involved the use of a joystick. The test battery takes about 20-25 minutes to perform. The tests were administered in the following order: • Picture Presentation: A series of 20 pictures was presented on the screen at the rate of 1 every 3 seconds for the subject to remember. No data were recorded from this task. • Simple Reaction Time: The subject was instructed to press the ‘YES’ response button as quickly as possible every time the word ‘YES’ is presented on the screen. […] A series of digits was then presented in the center of the screen at the rate of 150 per minute and the subject was required to press the ‘YES’ button as quickly as possible every time the digit in the series matches the target digit. There were 45 targets in the series. The task lasted for 3 minutes. • Choice Reaction Time: Either the word ‘NO’ or the word ‘YES’ was presented on the screen and the subject was instructed to press the corresponding button as quickly as possible. There were 50 trials for which each stimulus word was chosen randomly with equal probability and there was a varying inter-stimulus interval. • Rapid Visual Information Processing: A series of digits was presented on the screen at the rate of 100 per minute. The subject had to detect targets consisting of consecutive sequences of either three odd digits or three even digits, and to report them by pressing the ‘YES’ button as quickly as possible. There were 32 targets. The task lasted for 4 minutes. • Tracking: The subject used a joystick to track a randomly moving target on the screen for one minute. The distance off-target per second was recorded. • Spatial Working Memory: A picture of a house was presented on the screen with four of its nine windows lit. The subject had to memorize the position of the lit windows. For each of the 36 subsequent presentations of the house, the subject was required to decide whether or not the one window that was lit was also lit in the original presentation. […]"}, "normal subjects [4]": {"system": "normal subjects", "assay": "Phase I studies of l-methamphetamine: RAVLT word recall"}, "Long-Evans rats [5]": {"system": "Long-Evans rats", "assay": "Passive Avoidance test, injection immediately after training", "details": "i.p. immediately after training; p values=0.007 (C105), 0.0004 (d-amphetamine), 0.03 (SN522)"}, "Long-Evans rats [6]": {"system": "Long-Evans rats", "assay": "Water Maze acquisition", "assay_type": "in vivo, rat", "details": "higher dose (0.5 mg/kg i.p.); p>0.05", "procedure": "Water Maze testing (Morris, R., J. Neurosci Methods 11:47-60 (1984)) was conducted in a galvanized steel pool, painted white, measuring 180 cm in diameter and 60 cm in height. The pool was equipped with a removable circular platform (10 cm in diameter) made of clear Plexiglas. The pool was filled with water (26° C.) to a level of 1 cm above the surface of the platform. Nontoxic white paint was added to the water to obscure the platform's appearance. The pool was divided conceptually into four quadrants and the platform was located in the NW quadrant 30 cm from the pool wall. Extramaze cues were provided by large geometric shapes adhered to curtains that surrounded two sides of the pool, and by shelving units, a sink, and posters on the visible walls.\nThe training procedure involved placing the rat into the water, with the rat's head facing the wall of the pool, at one of four different starting points. The rat was allowed 60 seconds to locate the hidden platform. […] After 15 seconds spent on the platform at the end of each trial, the rat was removed from the pool and injected with saline or SN522 (0.25 and 0.5 mg/kg, i.p.). The rat was dried, and returned to its home cage. One trail was conducted each day for 10 days. The latency to reach the platform (escape latency) was recorded on each days training trial."}, "Long-Evans rats [7]": {"system": "Long-Evans rats", "assay": "Tailflick test of analgesia (SN522)", "assay_type": "in vivo, rat", "details": "0.25, 0.5, 2.5 and 5.0 mg/kg i.p.; 15, 30, 60 minutes", "procedure": "The tail-flick response was assessed using a radiant heat tail flick monitor (Accuscan Instruments model TFS) equipped with a radiant heat element and two light beam sensors to detect tail movement.\nIn order to determine whether SN522 has any analgesic properties, rats (n=10 per treatment group) were injected with saline or SN522 (0.25, 0.5, 2.5 and 5.0 mg/kg, i.p.) and tested at four time points: immediately prior to injection, and again 15, 30, and 60 minutes following drug administration for a tail flick response (D'Amour, F. E., et al., J. Pharmacol. Exp. Ther. 72:174-179 (1941)). To test the tail-flick, the animal was placed on top of the Tail-Flick monitor and gently held in place with a cotton towel. The tail of the animal was placed in a shallow groove lying between the two sensors and over the top of the radiant heat wire. The heat element was activated, and the latency for the animal to flick its tail out of the groove and away from the heat source was automatically recorded via activation of the sensors. The intensity of the heat source was adjusted so that the animal flicked its tail within 3-4 seconds. A 10 second cutoff was imposed to avoid tissue damage. The animal was returned to its home cage immediately following testing."}},
  "data": [
    {"smiles": "CN[C@H](C)Cc1ccccc1", "note": "[SN522, levo-methamphetamine]", "values": [
      {"measurement": "performance vs animals treated with scopolamine and saline", "setting": "scopolamine treated rats; 0.25, 0.5 and 1.0 mg/kg, p values=0.01, 0.04 and 0.007", "result": "performed significantly better than animals treated with scopolamine and saline"},
      {"measurement": "alleviation of scopolamine impairment (step-through latency)", "setting": "scopolamine treated rats; SN522 i.p. immediately after training, log rank p=0.02 (FIG. 32)", "result": "effective at alleviating the impairment in the scopolamine-injected animals"},
      {"measurement": "tolerability", "setting": "normal subjects [1]; 150 mg dose, a few subjects in the second Phase I trial", "result": "not well tolerated"},
      {"measurement": "tolerability", "setting": "normal subjects [1]; first and second Phase I trials (1-100 mg)", "result": "generally well tolerated"},
      {"measurement": "activity relative to saline control", "setting": "Long-Evans rats [2]; 0.5 mg/kg, p=0.028", "result": "only modest increases in activity"},
      {"measurement": "motor behavior (FIG. 23 description)", "setting": "Long-Evans rats [2]; 0.25 and 0.5 mg/kg ip", "result": "no or modest changes in motor behavior"},
      {"measurement": "activity relative to saline control", "setting": "Long-Evans rats [2]; 2.5 and 5.0 mg/kg, p<0.001", "result": "small, but significant increases in activity"},
      {"measurement": "activity (FIG. 23 description)", "setting": "Long-Evans rats [2]; doses ten times over the therapeutic doses (2.5, 5.0 mg/kg ip)", "result": "only mild increases in activity"},
      {"measurement": "Picture Recognition-Sensitivity Index vs placebo", "setting": "normal subjects [3]; 25 mg (p=0.0177) and 150 mg (p=0.0254) (FIG. 36)", "result": "significant benefits"},
      {"measurement": "Information Processing False Alarms vs placebo", "setting": "normal subjects [3]; 50 mg (p=0.0002), 100 mg (p=0.0001) and 150 mg (p=0.0001) (FIG. 38)", "result": "significant decrements against placebo"},
      {"measurement": "Information Processing Targets Detected vs placebo", "setting": "normal subjects [3]; 100 mg (p=0.0002) and 150 mg (p=0.0001) (FIG. 37)", "result": "significant benefits"},
      {"measurement": "speed of response (Total Speed score)", "setting": "normal subjects [3]; 25, 50, 100, 150 mg (FIG. 35)", "result": "dose-dependent effect on speed of response"},
      {"measurement": "RAVLT memory scores", "setting": "normal subjects [4]; first Phase I study (1, 4, 16, 32 mg)", "result": "No difference in memory scores"},
      {"measurement": "RAVLT mean values vs placebo", "setting": "normal subjects [4]; second Phase I study (25, 50, 100 mg) (FIG. 34)", "result": "all dose groups have mean values greater than placebo at 30 minutes and 24 hours"},
      {"measurement": "dose that significantly improved performance on the passive avoidance task", "setting": "Long-Evans rats [5]", "result": 0.5, "unit": "mg/kg"},
      {"measurement": "acquisition (escape latency) compared with saline group", "setting": "Long-Evans rats [6]", "result": "did not reveal any statistical differences"},
      {"measurement": "pain sensitivity (tail flick latency)", "setting": "Long-Evans rats [7]", "result": "does not alter pain sensitivity"}
    ]}
  ]
}
